The source of these data is paper PMC5589893, “Identification of Aspergillus fumigatus UDP-Galactopyranose Mutase Inhibitors” (Scientific Reports, 2017).

The structures appear in SMILES notation. Read-outs that look alike come from different tables or passages of the source.

Data set [1] concerns the target T1, A. fumigatus UGM (Aspergillus fumigatus, UniProt Q4W1X2).
T1 construct: 8x His-tag (TEV-cleavable) (cleaved yes); made in house; host or cells: E. coli BL21 Turbo (DE3)
The data set can be described thus: biochemical. Type of data set: binding. As to conditions: read-out: Normalized anisotropy (%). As to the method: High-throughput screening of the Spectrum Collection library using the FP assay with the ADP-TAMRA[22] probe was performed at the Virginia Tech Center for Drug Discovery Screening Laboratory. 384 well plates (Greiner 784900) were used and the reaction volume was 15 µL using 25 mM HEPES buffer (pH 7.0). For the screening, 30 nM of ADP-TAMRA with 6.7 µM UGM (based on the Bradford assay) and 20 µM of library compound were used, with a final DMSO concentration of 2%. Fluorescence polarization measurements were performed with excitation at 544 nm and emission at 584 nm, using a wavelength cutoff of 570 nm. Anisotropy measurements were performed after 30 and 120 minutes of incubation at 25 °C. Anisotropy values were normalized to the values obtained in the negative control sample: UGM, ADP-TAMRA, and DMSO (high anisotropy values). The positive control consisted of ADP-TAMRA and DMSO (low anisotropy values). The Z prime (Z′) value was determined using equation (1) where, σN,P and μN,P represent the standard deviation and the mean value the of the negative and positive controls respectively.1 Z′=1−3(σN+σP)/|μN−μP|

The target of data set [2] is T1, A. fumigatus UGM. The data set can be described thus: biochemical. Type of data set: biochemical. The following applies: for Concentration effect: UPLC; for inhibition at 200 µM: read-out: Inhibition > 50 %; for Inhibition of product formation, concentration dependence: UPLC at 20 and 200 µM compound, 2% DMSO; for enzyme activity at which the IC50 curve plateaued: 3 min. As to the method: (§1) The reaction was quenched with the addition of 70 µL acetonitrile. […] Samples were run at a flow rate of 0.5 mL/min for 5 min. IC50 was also determined by following NADPH oxidation at 340 nm. […] Data was analyzed using KaleidaGraph software. […] Global fitting was performed with Graphpad Prims 6 software (La Jolla, CA).

Data set [3] addresses T1, A. fumigatus UGM. The data set can be described thus: ADP-TAMRA fluorescence anisotropy binding and competition assay. As to conditions: for Kd: decrease in anisotropy of UGM (6.7 µM) - ADP-TAMRA (30 nM) complex, read-out: KD, competitive binding against ADP-TAMRA. The procedure:
Our group previously developed a binding assay to identify inhibitors of flavoenzymes that use NADP(H) as substrate. Since UGM also used NADPH for reduction, we determined whether this compound bound to UGM. This was done by taking the ADP-TAMRA[22] chromophore to a final concentration of 30 nM in 25 mM HEPES buffer, pH 7.5, mixed with various concentrations of UGM (0–300 µM, based on Bradford). To determine if the chromophore was binding to the active site of UGM, the competitive binding of UDP (0–1 mM) and NADP^+ (0–10 mM) was calculated by measuring the decrease in anisotropy of the UGM (6.7 µM) - ADP-TAMRA (30 nM) complex. At each concentration of ligand, the solution was incubated for 10 min at room temperature. The sample was excited at 544 nm and the emission recorded at 584 nm using a wavelength cutoff of 570 nm.
A general note: Fluorescence polarisation rises when a labelled molecule tumbles more slowly, as on binding a larger partner.

For a further data set, the target named is T2, UGM (Aspergillus fumigatus, UniProt Q4W1X2).
T2 construct: 8x His-tag (TEV-cleavable) (cleaved yes); made in house; host or cells: E. coli BL21 Turbo (DE3)
The experiment in a line: ThermoFAD melting temperature assay. The following applies: for Effect on Tm of UGM: 20, 100 and 1000 µM compound, 2% DMSO, 1 mg/mL UGM, vs UGM alone. Type of data set: binding. The procedure: The melting temperature[25] of UGM was determined by measuring the FAD fluorescence as a function of temperature (20–90 °C, 1 °C step) following the reported ThermoFAD procedure. The reaction mix consisted of 20 µL of 1 mg/mL UGM, 2% DMSO in 50 mM potassium phosphate buffer, pH 7.0. As a reference and positive control, the Tm was calculated in the presence DMSO and UDP (10 mM). Different concentrations of inhibitors were added in the range of 0–1 mM at a final DMSO concentration of 2% in the above-mentioned buffer. All experiments were done in triplicate.

Data set [4] deals with T1, A. fumigatus UGM. The experiment in a line: biochemical. Type of data set: binding. The following applies: for T•∆S / ∆G / ∆H / Kd: ITC, 25 °C; for Kd: read-out: KD. As to the method: Binding of inhibitors to UGM was measured with an Auto-ITC 200 ITC instrument. UGM was dialyzed in 50 mM potassium phosphate buffer, pH 7.0, for 2 h at 4 °C. In all cases, ligands were dissolved in dialysis buffer and protein and ligand were filtered with a […] membrane prior to loading. […] Inhibitor concentration in the syringe was 2 mM (2% DMSO), except for chrysin where the concentration was 600 µM (4% DMSO). […] Thermodynamic parameters were determined from ITC results using Microcal Origin version 7.0 (OriginLab) with the “ITC custom” add-on installed.

Data set [5] in a line: Precipitation / solubility observed in inhibition assays. Type of data set: physicochemical.
Data set [6] concerns the target T1, A. fumigatus UGM. The experiment in a line: biochemical. Type of data set: biochemical. The procedure: as §1
Setting [7] is: inhibition at 200 µM vs 20 µM compound.
Where [8] appears, read: 20 µM compound, 2% DMSO, 30 nM ADP-TAMRA, normalized to negative control.
Setting [9] is: product formation by UPLC with 200 µM compound, 20 µM UDP-Galf, 10 mM sodium dithionite.

T1 sequence (Q4W1X2 whole entry): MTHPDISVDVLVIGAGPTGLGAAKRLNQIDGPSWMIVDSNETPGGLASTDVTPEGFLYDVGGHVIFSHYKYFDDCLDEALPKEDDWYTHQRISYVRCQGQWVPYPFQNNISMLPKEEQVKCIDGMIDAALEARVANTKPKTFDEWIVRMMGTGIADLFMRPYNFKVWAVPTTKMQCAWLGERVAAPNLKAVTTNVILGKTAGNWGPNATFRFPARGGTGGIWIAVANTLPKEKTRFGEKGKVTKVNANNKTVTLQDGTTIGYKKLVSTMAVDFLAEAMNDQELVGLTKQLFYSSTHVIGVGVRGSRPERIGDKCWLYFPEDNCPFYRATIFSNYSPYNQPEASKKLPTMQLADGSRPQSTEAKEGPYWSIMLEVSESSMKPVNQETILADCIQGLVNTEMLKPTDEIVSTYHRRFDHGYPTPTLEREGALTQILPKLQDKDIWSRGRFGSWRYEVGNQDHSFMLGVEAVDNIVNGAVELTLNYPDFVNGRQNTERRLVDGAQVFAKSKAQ
T2 sequence (Q4W1X2 whole entry): as above

Broadly, the inhibition is the change of the read-out against control, counted positive when it falls. Take `O=C(O)c1cc(/N=N/c2ccc(O)c(C(=O)O)c2)ccc1O` [Olsalazine sodium, reference compound]: at A. fumigatus UGM [1], the remaining activity at 20 µM turned out to be 48%. In addition, at A. fumigatus UGM [2] (setting [7]), the Concentration effect entry was “-”. In addition, the inhibition at 200 µM at A. fumigatus UGM [2] was less than 50%.
With `O=C(O)C1=CC(=C(c2ccc(O)c(C(=O)O)c2)c2ccc(O)c(C(=O)O)c2)C=CC1=O` [Aurin tricarboxylic acid], on A. fumigatus UGM [1] (setting [8]), the remaining activity at 20 µM is 14%. In addition, the Concentration effect result on A. fumigatus UGM [2] (setting [7]) is reported as “-”. The inhibition at 200 µM on A. fumigatus UGM [2] (setting [9]) was less than 50%.
In the case of `Cc1ccc(C(=O)Nc2ccc(S(=O)(=O)O)c3cc(S(=O)(=O)O)cc(S(=O)(=O)O)c23)cc1NC(=O)c1cccc(NC(=O)Nc2cccc(C(=O)Nc3cc(C(=O)Nc4ccc(S(=O)(=O)O)c5cc(S(=O)(=O)O)cc(S(=O)(=O)O)c45)ccc3C)c2)c1` [Suramin hexasodium, reference compound], the remaining activity at 20 µM at A. fumigatus UGM [1] came out at 41%. In addition, the Concentration effect entry at A. fumigatus UGM [2] (setting [7]) is listed as “-”. Further, the inhibition at 200 µM at A. fumigatus UGM [2] is less than 50%.
As a reminder, the Kd is the concentration at which binding is half-saturated. As for `Nc1ncnc2c1ncn2[C@@H]1O[C@H](COP(=O)(O)OP(=O)(O)O)[C@@H](O)[C@H]1O` [ADP], at A. fumigatus UGM [3], the Kd is 124 ± 16 µM.
For the compound `N#CC(c1ccc(Cl)cc1)c1c(Cl)cc(-n2ncc(=O)[nH]c2=O)cc1Cl` (stereo not shown) [Diclazuril, reference compound], the remaining activity at 20 µM at A. fumigatus UGM [1] (setting [8]) was found to be 37%. In addition, the “Effect on Tm of UGM” value at UGM is “reduced the Tm”. Moreover, the “Inhibition of product formation, concentration dependence” value (from here on “Inhibition of product formation”) at A. fumigatus UGM [2] was “concentration dependent potency”. The Concentration effect entry at A. fumigatus UGM [2] (setting [7]) is on record as “+”. The inhibition at 200 µM on A. fumigatus UGM [2] (setting [9]) is more than 50%.
On to `COc1cc(C)c(C(=O)Oc2cc(C)c(C(=O)O)c(O)c2C)c(OC)c1C` [Diffractaic acid], for which the remaining activity at 20 µM on A. fumigatus UGM [1] (setting [8]) amounted to 37%. For the same compound, the Concentration effect entry on A. fumigatus UGM [2] (setting [7]) is “-”. On A. fumigatus UGM [2] (setting [9]), the inhibition at 200 µM is less than 50%.
In the case of `CS(=O)(=O)Nc1ccc([N+](=O)[O-])cc1Oc1ccccc1` [Nimesulide, reference compound], on A. fumigatus UGM [1], the remaining activity at 20 µM turned out to be 28%. Moreover, the Concentration effect entry on A. fumigatus UGM [2] (setting [7]) was “-”. The inhibition at 200 µM on A. fumigatus UGM [2] is less than 50%.
For the compound `O=C(NCCO[N+](=O)[O-])c1cccnc1` [Nicorandil, reference compound], the remaining activity at 20 µM at A. fumigatus UGM [1] came to 27%. For the same compound, at A. fumigatus UGM [2] (setting [7]), the Concentration effect entry is given as “-”. Besides, the inhibition at 200 µM at A. fumigatus UGM [2] is less than 50%.
As for `O=c1c(O)c(-c2ccc(O)cc2)oc2cc(O)cc(O)c12` [Kaempferol], the “anisotropy at which the KD curve plateaued” value on A. fumigatus UGM [3] (30 nM ADP-TAMRA) was “around 50%”. Also, at A. fumigatus UGM [1] (setting [8]), the remaining activity at 20 µM came to 38%. In addition, the “enzyme activity at which the IC50 curve plateaued” value at A. fumigatus UGM [2] is reported as “around 70%”. Further, the Concentration effect result on A. fumigatus UGM [2] (setting [7]) is “+”. The inhibition at 200 µM at A. fumigatus UGM [2] (setting [9]) was more than 50%.
With `O=c1ccn([C@@H]2O[C@H](COP(=O)(O)OP(=O)(O)O)[C@@H](O)[C@H]2O)c(=O)[nH]1` [UDP, reference compound], the Kd at A. fumigatus UGM [3] was 10 ± 1 µM. Besides, on A. fumigatus UGM [4], the “T•∆S” value is 10.5 ± 0.3 kcal/mol, the “∆G” value is -7.1 ± 0.1 kcal/mol, the “∆H” value is 3.3 ± 0.1 kcal/mol and the Kd stood at 5.4 ± 0.8 µM. Moreover, the “Shift of Tm of UGM” value on UGM (10 mM UDP) stood at 3 °C.
As to `O=C1C[C@@H](c2ccc(O)cc2)Oc2cc(O)ccc21` [liquiritigenin], the “Inhibition of UGM by derivatives” value on A. fumigatus UGM [2] is on record as “no inhibitory effect”.
Turning to `O=c1oc2c(O)c(O)cc3c(=O)oc4c(O)c(O)cc1c4c23` [Ellagic acid], the “Solubility” value in data set [5] is “low solubility”. Besides, the remaining activity at 20 µM at A. fumigatus UGM [1] (setting [8]) came out at 50%. Also, the Concentration effect result at A. fumigatus UGM [2] (ellagic acid assayed at 6 and 12 µM with 2% DMSO due to low solubility) was “-”.
A word on the IC50: it is the concentration needed to halve the response being measured. The low end stands for higher potency, the high end for lower potency. Compound `O=c1cc(-c2ccccc2)oc2cc(O)cc(O)c12` [Chrysin] yielded an IC50 against A. fumigatus UGM [6] of more than 1000 µM. Further, the “Inhibition of NADPH oxidation” value at A. fumigatus UGM [6] (absence of UDP-Galf) was “did not inhibit NADPH oxidation”. The “Concentration above which compound precipitated” value in data set [5] (with 2% DMSO) is “above 100 µM”. For the same compound, the remaining activity at 20 µM at A. fumigatus UGM [1] (setting [8]) is 48%. In addition, on A. fumigatus UGM [4], the “Binding to UGM detected by ITC” value is listed as “nor was binding detected”. Besides, the “Effect on Tm of UGM” value at UGM is “no effect on Tm”. Besides, at A. fumigatus UGM [2], the IC50 turned out to be 24 ± 4 µM; the “Inhibition of product formation” value is given as “concentration dependent potency”; the inhibition at 200 µM was more than 50%. Moreover, the “enzyme activity at which the IC50 curve plateaued” value at A. fumigatus UGM [2] (UPLC IC50 curve saturating below full inhibition (chrysin at ~30 µM)) is on record as ~ 35%. The Concentration effect entry on A. fumigatus UGM [2] (setting [7]) is given as “+”.
Regarding `NC(=O)c1ccc[n+]([C@@H]2O[C@H](COP(=O)([O-])OP(=O)(O)OC[C@H]3O[C@@H](n4cnc5c(N)ncnc54)[C@H](OP(=O)(O)O)[C@@H]3O)[C@@H](O)[C@H]2O)c1` [NADP^+, reference compound], on A. fumigatus UGM [3], the Kd is 92 ± 13 µM. At A. fumigatus UGM [4], the “T•∆S” value is -8.4 ± 0.7 kcal/mol, the “∆G” value was -4.6 ± 0.3 kcal/mol, the “∆H” value was -13.0 ± 0.3 kcal/mol and the Kd stood at 413 ± 24 µM.
On to `O=C1C[C@H](c2ccc(O)cc2)Oc2cc(O)cc(O)c21` [R enantioniomer of naringenin, (2 R)-naringenin], for which, on A. fumigatus UGM [2], the “Inhibition of UGM by derivatives” value is given as “no inhibition”.
In the case of `Cc1nc(-c2ccc(OCC(C)C)c(C#N)c2)sc1C(=O)O` [Febuxostat, reference compound], the remaining activity at 20 µM on A. fumigatus UGM [1] (setting [8]) was determined as 39%. Moreover, the “Effect on Tm of UGM” value on UGM is “reduced the Tm”. For the same compound, at A. fumigatus UGM [2], the “Inhibition of product formation” value is given as “concentration dependent potency” and the inhibition at 200 µM was more than 50%. Also, the Concentration effect entry at A. fumigatus UGM [2] (setting [7]) is reported as “+”.
